Test results reported in patent publication US20250325560A1, “METHODS FOR IMPROVING MUSCLE MASS, STRENGTH, OR FUNCTION WITH A COMBINATION OF TESTOSTERONE AND GROWTH HORMONE” (University of Rochester, priority 2022, published 2025).

How the values were obtained:
[1] = system: patients with myotonic dystrophy; details: 40 patients with myotonic dystrophy; cited from earlier work
[2] = system: adult muscular dystrophy population; details: heterogeneous adult muscular dystrophy group with normal baseline testosterone; after 3 months of treatment; cited from earlier work
FSHD patients = test: Safety and tolerability monitoring in clinical study; type: in vivo, human; details: intramuscular injection into the gluteal muscle, when properly given
Excerpt: Safety outcome measures included (1) Changes from baseline in laboratory test results, vital signs, and EKG results, (2) Occurrence of serious adverse events, and (3) Occurrence of non-serious adverse events. Exploratory efficacy outcome measures included the following: • 1. Composite Quantitative Muscle Testing (QMT) score • 2. Composite Manual Muscle Testing (MMT) score • 3. FSHD Clinical Outcome Measure (FSHD-COM), total and individual test scores • 4. FSHD-Health Index (FSHD-HI), disease-specific patient-reported outcome measure • 5. Forced Vital Capacity (FVC) • 6. Epworth Sleepiness Scale • 7. Fatigue Severity Scale • 8. Dual Energy X-Ray Absorptiometry (DEXA) Lean Body Mass (total and regional) • 9. PROMIS-57 • 10. Individualized Neuromuscular Quality of Life Questionnaire (INQoL) • 11. Beck Depression Inventory (BDI) • 12. Six minute walk distance
For safety assessments and adverse event assessments, various clinical safety Laboratory tests were carried out. For treatment-specific assessments, the subjects were monitored for the following treatment-related events: • peripheral edema • carpal tunnel syndrome • gynecomastia • insulin resistance • arthralgia • increased erythropoiesis • reduced HDL cholesterol • elevated prostate specific antigen • elevated blood pressure […]

Compound | Safety and efficacy of testosterone in isolation [1] | Safety and body composition effects of testosterone in isolation [2] | Tolerability of intramuscular injections (FSHD patients)
C[C@]12CC[C@H]3[C@@H](CCC4=CC(=O)CC[C@@]43C)[C@@H]1CC[C@@H]2O [testosterone, 17-β-hydroxyandrost-4-en-3-one] | safe, tolerable, and able to improve both creatinine excretion and lean body mass while not statistically improving overall strength | safe and increase lean body mass, reduce body fat, and improve basal metabolic rate | 
CCCCCCC(=O)O[C@H]1CC[C@H]2[C@@H]3CCC4=CC(=O)CC[C@]4(C)[C@H]3CC[C@]12C [testosterone enanthate, Testosterone enanthate] |  |  | well tolerated
